Read-outs that look alike come from different tables or passages of the source.

The results in this text go back to publication PMC3108484 (Frontiers in Pharmacology, 2011).

The target in data set [1] is 5-HT4 receptor (Cavia porcellus, UniProt O70528). The experiment in a line: Guinea pig colonic longitudinal muscle/myenteric plexus. Conditions: for Guinea pig colonic LMMP contractile activity IA (mean % 5-HT max ± SEM): isolated tissue, % of primed 5-HT (0.3 μM) maximum.
Data set [2] has as its system rat esophagus. The experiment in a line: Rat esophageal relaxation. Conditions: cumulative i.d. dosing, anesthetized rats. It counts as in vivo.
In data set [3] the target is hERG potassium channel (Homo sapiens, UniProt Q12809). The experiment in a line: in vitro.
Data set [4] addresses human 5-HT4(c) receptor (Homo sapiens, UniProt Q13639). It counts as cell-based. Particulars: for pKb of GR113808 (Schild regression): GR113808 0.6, 1.7, or 5 nM, 95% CI.
Data set [5] addresses human 5-HT4(c) (h5-HT4(c)) receptor (Homo sapiens, UniProt Q13639). The experiment in a line: biochemical.
For data set [6], the system named is canine antrum, duodenum, and jejunum. The experiment in a line: Dog gastrointestinal contractility. It counts as in vivo. Conditions: oral, conscious fasted dogs; TD-8954 0.01 and 0.03 mg/kg, tegaserod 0.1 and 0.3 mg/kg.

5-HT4 receptor, sequence (O70528 whole entry): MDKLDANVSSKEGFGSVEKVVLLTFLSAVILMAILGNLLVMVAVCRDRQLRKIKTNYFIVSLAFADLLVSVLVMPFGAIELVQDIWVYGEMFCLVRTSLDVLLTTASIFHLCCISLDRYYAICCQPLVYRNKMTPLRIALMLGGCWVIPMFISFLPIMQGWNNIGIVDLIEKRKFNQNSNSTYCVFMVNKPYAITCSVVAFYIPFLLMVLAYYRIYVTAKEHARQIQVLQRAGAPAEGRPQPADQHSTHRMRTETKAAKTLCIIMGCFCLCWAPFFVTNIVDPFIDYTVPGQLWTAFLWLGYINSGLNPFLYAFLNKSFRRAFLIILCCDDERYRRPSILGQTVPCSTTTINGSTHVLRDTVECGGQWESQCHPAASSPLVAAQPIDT
human 5-HT4(c) receptor, sequence (Q13639 1-380 isoform Q13639-4): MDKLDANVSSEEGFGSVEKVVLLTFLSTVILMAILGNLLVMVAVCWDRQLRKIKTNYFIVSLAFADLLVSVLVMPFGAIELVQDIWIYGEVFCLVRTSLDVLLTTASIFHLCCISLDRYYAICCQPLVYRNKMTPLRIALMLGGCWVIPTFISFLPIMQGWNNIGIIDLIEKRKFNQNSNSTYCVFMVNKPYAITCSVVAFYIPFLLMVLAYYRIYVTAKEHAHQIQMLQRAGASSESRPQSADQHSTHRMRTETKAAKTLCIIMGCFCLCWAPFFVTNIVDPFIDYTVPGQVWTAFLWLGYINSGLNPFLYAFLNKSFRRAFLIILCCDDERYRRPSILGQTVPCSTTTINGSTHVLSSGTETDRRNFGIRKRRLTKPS
human 5-HT4(c) (h5-HT4(c)) receptor, sequence (Q13639 1-380 isoform Q13639-4): as above
hERG potassium channel, sequence (Q12809 whole entry): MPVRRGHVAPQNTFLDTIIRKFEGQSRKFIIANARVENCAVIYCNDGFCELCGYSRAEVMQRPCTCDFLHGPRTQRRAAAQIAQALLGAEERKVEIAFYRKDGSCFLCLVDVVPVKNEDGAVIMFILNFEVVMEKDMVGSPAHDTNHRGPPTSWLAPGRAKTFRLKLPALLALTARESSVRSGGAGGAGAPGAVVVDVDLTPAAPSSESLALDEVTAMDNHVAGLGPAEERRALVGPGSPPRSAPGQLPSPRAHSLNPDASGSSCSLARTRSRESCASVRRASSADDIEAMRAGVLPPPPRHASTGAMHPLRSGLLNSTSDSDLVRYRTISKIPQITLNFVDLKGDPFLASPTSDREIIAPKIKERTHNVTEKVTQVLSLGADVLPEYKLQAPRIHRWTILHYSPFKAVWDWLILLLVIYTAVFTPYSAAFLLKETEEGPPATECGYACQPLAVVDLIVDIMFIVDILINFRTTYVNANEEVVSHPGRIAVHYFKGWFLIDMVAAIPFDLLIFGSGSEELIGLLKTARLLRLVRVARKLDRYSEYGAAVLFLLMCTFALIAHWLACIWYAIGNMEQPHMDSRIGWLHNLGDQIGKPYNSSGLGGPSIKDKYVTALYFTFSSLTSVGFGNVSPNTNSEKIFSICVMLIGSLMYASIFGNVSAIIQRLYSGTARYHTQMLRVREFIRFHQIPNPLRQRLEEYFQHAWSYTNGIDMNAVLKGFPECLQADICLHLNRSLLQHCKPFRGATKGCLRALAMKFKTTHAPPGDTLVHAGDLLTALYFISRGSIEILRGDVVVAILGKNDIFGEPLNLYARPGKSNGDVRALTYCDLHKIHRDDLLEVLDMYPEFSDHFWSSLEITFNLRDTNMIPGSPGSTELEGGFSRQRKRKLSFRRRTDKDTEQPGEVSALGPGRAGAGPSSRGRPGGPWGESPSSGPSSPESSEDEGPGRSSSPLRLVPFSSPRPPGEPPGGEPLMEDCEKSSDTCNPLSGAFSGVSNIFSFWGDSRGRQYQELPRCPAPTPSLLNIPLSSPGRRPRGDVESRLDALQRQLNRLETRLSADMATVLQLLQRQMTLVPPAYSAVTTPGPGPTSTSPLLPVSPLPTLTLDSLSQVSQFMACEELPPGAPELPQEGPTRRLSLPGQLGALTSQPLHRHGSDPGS

Regarding `COc1cc(N)c(Cl)cc1C(=O)NC1CCN(CCCOc2ccc(F)cc2)CC1OC` (stereo not shown) [Cisapride, cisapride], the “Guinea pig colonic LMMP contractile activity IA (mean % 5-HT max ± SEM)” value in data set [1] is listed as 75 ± 3 % 5-HT max; in data set [1] (listed as cisapride), 75 % 5-HT max. Besides, the “dose associated with a relaxation response of 0.1 mm” value (from here on “dose associated”) in data set [2] is 2.66 mg/kg. The inhibition (as a rule, the drop in the measured response relative to a control, in per cent) at 0.02 µM in data set [3] stood at 65%.

`Cn1cc(C(=O)OCC2CCN(CCNS(C)(=O)=O)CC2)c2ccccc21` [GR113808]: the “pKb of GR113808 (Schild regression)” value in data set [4] (against 5-HT, cAMP accumulation) was 10.3 (95% CI: 10.2–10.4); in data set [4] (against TD-8954, cAMP accumulation), 10.3 (95% CI: 10.2–10.5).

Turning to `CCOc1cc(N)c(Cl)cc1C(=O)NCC1CN(Cc2ccc(F)cc2)CCO1` (stereo not shown) [Mosapride, mosapride], the EC50 (commonly the concentration needed to bring the measured effect to its halfway point) in data set [4] is 501 nM; in data set [1], 3980 nM. Besides, the entries for the “Guinea pig colonic LMMP contractile activity IA (mean % 5-HT max ± SEM)” value in data set [1] and in data set [1] (listed as mosapride) were 37 ± 2 % 5-HT max and 37 % 5-HT max, respectively. For the same compound, the “dose associated” value in data set [2] is given as 4.37 mg/kg. Moreover, the inhibition constant Ki (commonly a dissociation constant, usually derived from enzyme kinetics or from competition with a known ligand) in data set [5] is 158 nM.

Turning to `COCCCN1CCC(NC(=O)c2cc(Cl)c(N)c3c2OCC3)CC1` [Prucalopride, prucalopride], in data set [2], the “dose associated” value worked out at 0.30 mg/kg.

As for `[H]/N=C(/NCCCCC)N/N=C/c1c[nH]c2ccc(OC)cc12` [Tegaserod, tegaserod], the “Guinea pig colonic LMMP contractile activity IA (mean % 5-HT max ± SEM)” value in data set [1] amounted to 45 ± 13 % 5-HT max; in data set [1] (listed as tegaserod) it was 45 % 5-HT max. Further, in data set [2], the “dose associated” value is reported as 2.43 mg/kg. Moreover, in data set [6], the “effect on contractility in the antrum, duodenum, and jejunum” value is “increases in contractility”. The affinity in data set [5] corresponds to a Ki of 2.51 nM.

`CCCCN1CCC(CNC(=O)c2c3n(c4ccccc24)CCCO3)CC1` [piboserod]: the “shift of the TD-8954 concentration–response curve” value in data set [1] (piboserod 0.3 μM, guinea pig colonic LMMP) came out at 614 fold.
